Publication PMC6541551 (Journal of psychopharmacology (Oxford, England), 2018)

Test: Screening of
Type: in vivo, CD-1 mice
Settings: male mice, 50 mg/kg, three timepoints

Structure (SMILES) | Relative BA (plasma AUClast p.o. / i.p.) | AUC (systemic exposure to (2R,6R)-HNK) (p.o.)
CCC(=O)O[C@@H]1CCC[C@@](N)(c2ccccc2Cl)C1=O [Compound 2b] | 30% | –
CCCCC(=O)O[C@@H]1CCC[C@@](N)(c2ccccc2Cl)C1=O [Compound 2c] | 26% | –
CCCCCCCC(=O)O[C@@H]1CCC[C@@](N)(c2ccccc2Cl)C1=O [Compound 2d] | 10% | 0.782 µg/mL/h
N[C@@]1(c2ccccc2Cl)CCC[C@@H](OC(=O)c2ccccc2)C1=O [Compound 2e] | 44% | –
